Measured values as given in patent publication US10995068B2, “Synthetic sphingolipid-like molecules, drugs, methods of their synthesis and methods of treatment” (The Regents of the University of California, priority 2015, dated 2021).
“And” between values parts separate entries of the source, which are not always exact repeats. Equal values may be shown once. Read-outs that look alike come from different tables or passages of the source.

Assays:
[1] = system: PC3 prostate cancer cells; test: Cell Titer Glo proliferation assay in PC3; format: cell-based, human; conditions: Cell Titer Glo, 72 h, Mean ± SEM, n ≥ 3, read-out: IC50 values in prostate cancer cell lines, PC3
Description: (§1) Previously presented compounds 1-4 (FIG. 23), compounds 5-8 (FIG. 28), and control compound FTY720 (FIG. 2) were used to treat the well-established PC3 and DU145 prostate cancer lines (FIG. 29 and Table 1). A Cell Titer Glo assay was performed to measure proliferation of the cancer lines.
(§2) Cell culture studies: Sup-B15 cells are maintained at 2-3 million/mL in RPMI 1640 (Mediatech) supplemented with 10% fetal calf serum (FCS, Sigma-Aldrich), 10 mM Hepes (Mediatech), 55 μM β-mercaptoethanol (Sigma-Aldrich), 2 mM L-glutamine (Mediatech), and antibiotics. All adherent cells are maintained at 70-80% confluence. Cell are cultured in the following media: PC3 & A549, Ham's F12K (Corning Cell Gro) supplemented with 10% FCS and antibiotics; DU145 cells, MEM (Corning Cell Gro) supplemented with 10% FCS, 1 mM sodium pyruvate (Mediatech), and antibiotics; SW620 & MDA-MB-231, DMEM (Corning Cell Gro) with 10% FCS, 1 mM sodium pyruvate (Mediatech), and antibiotics; Panc-1 cells, DMEM (Corning Cell Gro) supplemented with 10% FCS and antibiotics. All of the above cell lines are available from the ATCC.
(§3) Viability assays: Cell Titer Glo assays (Cell Titer Glo Luminescent Cell Viability Assay kit, cat #G7571, Promega Corporation) are performed in clear bottom 96-well black cell culture plates (cat #655090, Greiner Bio-One, NC, USA). After plating at 1,000 cells/well in volume of 100 μl, cells are left undisturbed for at least 24 h before drug addition. After 72 h, cells are prepared for analysis by adding 10 μl of 0.1% Triton-X100 in PBS with shaking for 1 min at room temperature (RT). Cell Titer-Glo cell lysis reagent (20 μl) is then added followed by 1 min of shaking and a 10 min incubation in the dark at RT. Luminescence is detected using an IVIS imaging system (IVIS Lumina II, Perkin Elmer, USA). […] IC50s are determined using GraphPad Prism (GraphPad Software, Inc, La Jolla, Calif.). SupB-15 viability was determined by flow cytometry. Cell Titer Glo assays were performed with the other cell lines.

[2] = system: DU145 prostate cancer cells; test: Cell Titer Glo proliferation assay in DU145; format: cell-based, human; conditions: Mean ± SEM, n ≥ 3, read-out: IC50 values in prostate cancer cell lines, DU145
Description: as §1, §2, §3

[3] = system: murine hematopoietic cell line FL5.12; test: Viability of FL5.12 cells by vital dye exclusion; format: cell-based; conditions: for IC50: FL5.12 cells, 48 h, vital dye exclusion, n ≥3, read-out: IC50 (μM) [95% CI]
Description: (§4) Cell culture studies: FL5.12 cells (murine hematopoetic cells originally obtained from Craig Thompson, Memorial Sloan Kettering Cancer Center) were maintained at 0.1-0.5 million/ml in RPMI 1640 (Mediatech) supplemented with 10% fetal calf serum (FCS, Sigma-Aldrich), 10 mM Hepes (Mediatech), 500 pg/ml recombinant IL-3 (cat #575502, Biolegend), 55 μM β-mercaptoethanol (Sigma-Aldrich), 2 mM L-glutamine (Mediatech), and antibiotics. Cells were screened for Mycoplasma every 3 months using the Look-Out Mycoplasma PCR Detection kit (cat #MP0035, Sigma).
IC50 values were calculated using GraphPad Prism (GraphPad Software, Inc, La Jolla, Calif.).

[4] = system: CD98 (4F2hc, SLC3A2); test: Surface CD98 nutrient transporter down-regulation by flow cytometry; format: cell-based, murine; conditions: FL5.12 cells; for % CD98 down-regulation: surface CD98 at 3 h, flow cytometry, mean ± SEM, n ≥3
Excerpt: (§5) In an exemplified study, nutrient transporter down-regulation was monitored by quantifying surface levels of the amino acid transporter-associated protein, CD98, by flow cytometry. Vacuolation was scored in a range from 0 to […], as determined by a vacuolation assay described in greater detail in the Materials and Methods section below.
as §4
Nutrient transporter expression: Surface CD98 (4F2hc, SLC3A2) expression was measured at 3 h using phycoerythrin (PE)-conjugated rat anti-mouse CD98 antibody (Biolegend, cat #128208); analysis was restricted to viable cells. PE conjugated Rat IgG2a, k (cat #400508, Biolegend) was used as an isotype control. For staining, 200,000 cells were pelleted, re-suspended in 100 μl FACS block (PBS with 10% FCS and 0.05% NaN3) containing 0.25 μL anti-CD98 antibody, incubated on ice for 30 min, washed twice with 1 ml FACS wash (PBS containing 2% FCS and 0.05% NaN3), and analyzed on a BD LSR II flow cytometer. Data was processed with FlowJo software (Treestar).

[5] = system: FL5.12 cells; test: Vacuolation assay; format: cell-based, murine; parameters: key to Vacuolation score: 0-100 score: (3×%cat3+2×%cat2+1×%cat1)/3; cells graded 0-3 for vacuoles; conditions: for Vacuolation score / vacuolation (in words): FL5.12 cells; for Vacuolation score: 3 h in 2.5 μM compound except where otherwise indicated, mean ± SEM, n ≥3; for vacuolation (in words): at any dose / highest dose tested; for ability to induce vacuole formation: highest concentrations tested (30 μM)
Description: as §5
Vacuolation assay: Cells were evaluated at 100× using brightfield microscopy and a Nikon TE2000-S fluorescence microscope equipped with DIC filters. Vacuolation was quantified after a 3 h incubation period in 2.5 μM compound except where otherwise indicated. To calculate a vacuolation score, vacuolation severity in at least 15 individual cells/experiment was assessed qualitatively. Scores were assigned to individual cells as follows: 0=no vacuoles, 1=very small vacuoles, 2=multiple well-defined vacuoles, 3=multiple large vacuoles. To calculate the vacuolation score associated with a compound, the following formula was used: vacuolation score=[(3×% cells in category 3)+(2×% cells in category 2)+(1×% cells in category 1)]/3.
The score is divided by 3 so that a compound with 100% of its cells in category 3 would have a vacuolation score of 100. Three independent experiments were conducted and the vacuolation scores averaged to generate a mean+/−SEM. All cells were scored by one lab member after confirming that a blinded individual scored 5 compounds with similar results.

Compound | IC50 [3] | % CD98 down-regulation [4] | Vacuolation score [5] | further results
CCCCCCCCc1ccc([C@H]2C[C@H](CO)N[C@H]2CO)cc1 [Compound 1, (2R,3R,5R)-2,5-bis-hydroxymethyl-3-(4-octyl)phenyl pyrrolidine] |  |  |  | IC50 [1]: 7 ± 0.3 µM; IC50 ([2]; 72 h): 7.3 ± 0.8 µM
CCCCCCCCc1ccc([C@@H]2C[C@@H](CO)N[C@@H]2CO)cc1 [Compound 2] |  |  |  | IC50 [1]: 6.1 ± 1 µM; IC50 ([2]; 72 h): 5.7 ± 0.4 µM
CCCCCCCCc1ccc(C2CCNC2CO)cc1 (stereo not drawn) [Compound 7] |  |  |  | IC50 [1]: 5.5 ± 0.7 µM; IC50 ([2]; 72 h): 5.3 ± 0.7 µM
CCCCCCCCc1ccc(C2CCNC2CO)cc1 (stereo not drawn) [Compound 8] |  |  |  | IC50 [1]: 6.5 ± 0.3 µM; IC50 ([2]; 72 h): 5.4 ± 0.3 µM
CCCCCCCCc1ccc([C@@H]2CC(=O)N[C@H]2CO)cc1 [Compound 9, (4S,5R)-5-(hydroxymethyl)-4-(4-octylphenyl)Pyrrolidin-2-one] |  |  |  | IC50 ([1]; Homo sapiens): > 20 µM; IC50 ([2]; Homo sapiens, DU-145, 72 h): > 20 µM
CCCCCCCCc1ccc([C@H]2CC(=O)N[C@H]2CO)cc1 [Compound 10] |  |  |  | IC50 [1]: > 20 µM; IC50 ([2]; 72 h): > 20 µM
CCCCCCCCc1ccc([C@@H]2CC(=O)N[C@@H]2CO)cc1 [Compound 11] |  |  |  | IC50 [1]: > 20 µM; IC50 ([2]; 72 h): > 20 µM
CCCCCCCCc1ccc([C@H]2CCN[C@@H]2C)cc1 [Compound 13] |  |  |  | IC50 [1]: 4.4 ± 0.6 µM; IC50 ([2]; 72 h): 5.1 ± 0.6 µM
CCCCCCCCc1ccc(COC2CNC(CO)C2)cc1 (stereo not drawn) [Compound 102] | 2 µM | 63 ± 3% | 33 ± 2 | 
CCCCCCCCc1ccc(COC2CNC(CO)C2)cc1 (stereo not drawn) [Compound 103] | 3 µM | 48 ± 2% | 47 ± 2 | 
CCCCCCCCc1ccc([C@@H]2CCN[C@H]2CO)cc1 [Compound 105] | 1.7 µM | 47% and 47 ± 3% | 53 and 53 ± 3 | 
CCCCCCCCCCCCC/C=C/[C@@H](O)[C@@H](N)CO [Compound 106, sphingosine, reference compound] |  | 48 ± 2% | 57 ± 6 | IC50 ([3]; Mus musculus): 3.6 µM; concentration required to cause similar transporter loss ([4]; CD98 loss): 2.5 µM
CCCCCCCCCCCCCCC[C@@H](O)[C@@H](N)CO [Compound 107, sphinganine, reference compound] |  | 47 ± 3% | 38 ± 6 | IC50 ([3]; Mus musculus): 3.5 µM
CCCCCCCCCCCCC/C=C/[C@@H](O)[C@H](CO)N(C)C [Compound 108, dimethylsphingosine, reference compound] | 0.77 µM and 0.8 µM | 69 ± 2% | 72 ± 3 | fold more potent than sphingosine (106) ([3]; IC50, FL5.12 cells): ~5 fold
CCCCCCc1ccc(COC2CNC(CO)C2)cc1 (stereo not drawn) [Compound 111] | 2.7 µM | 30 ± 2% | 0 | 
CCCCC=Cc1ccc(COC2CNC(CO)C2)cc1 (stereo not drawn) [Compound 112] | 5.5 µM | 30 ± 4% | 0 | 

Compound | IC50 [3] | % CD98 down-regulation [4] | Vacuolation score [5] | further results
CCCCCCC=Cc1ccc(COC2CNC(CO)C2)cc1 (stereo not drawn) [Compound 113] | 1.4 µM | 64 ± 1% | 27 ± 1 | 
CCCCCCCCCCCCc1ccc(COC2CNC(CO)C2)cc1 (stereo not drawn) [Compound 114] | 10.1 µM | 13 ± 3% | 3 ± 1 | 
CCCCCCCCCCCCCCc1ccc(COC2CNC(CO)C2)cc1 (stereo not drawn) [Compound 116] | 10.5 µM | 12 ± 3% | 4 ± 2 | 
CCCCC=Cc1ccc(COC2CNC(CO)C2)cc1 (stereo not drawn) [Compound 118] | 5.7 µM | 9 ± 3% | 5 ± 2 | 
CCCCCCC=Cc1ccc(COC2CNC(CO)C2)cc1 (stereo not drawn) [Compound 119] | 2.4 µM | 41 ± 3% | 70 ± 1 | 
CCCCCCCCCCc1ccc(COC2CNC(CO)C2)cc1 (stereo not drawn) [Compound 120] | 3.6 µM | 28 ± 1% | 36 ± 5 | 
CCCCCCCCCCCCc1ccc(COC2CNC(CO)C2)cc1 (stereo not drawn) [Compound 121] | 3.9 µM | 14 ± 4% | 30 ± 2 | 
CCCCCCCCCCCCCCc1ccc(COC2CNC(CO)C2)cc1 (stereo not drawn) [Compound 123] | 5.7 µM | 19 ± 1% | 3 ± 3 | 
CCCCCCC=Cc1ccc(C2CCNC2CO)cc1 (stereo not drawn) [Compound 125] | 1.7 µM | 58 ± 3% | 84 ± 2 | 
CCCCCCC=Cc1ccc(COC2CC(CO)N(C)C2)cc1 (stereo not drawn) [Compound 130] | 1.9 µM | 31 ± 4% | 26 ± 2 | 
CCCCCCCCc1ccc(COC2CC(CO)N(C(C)=O)C2)cc1 (stereo not drawn) [Compound 131] | 29.7 µM | 37 ± 3% | 1 ± 1 | fold less potent than analog 102 ([3]; IC50, FL5.12 cells): 10 fold; vacuolation (in words) [5]: no vacuolation activity
CCCCCCCCc1ccc(COC2CC(CO)N(C(=N)N)C2)cc1 (stereo not drawn) [Compound 132] | 14.2 µM | 35 ± 1% | 0 | ability to induce vacuole formation [5]: lost
CCCCCCCCc1ccc(COC2CC(CO)N(C(=N)N)C2)cc1 (stereo not drawn) [Compound 133] | 17.3 µM | 34 ± 3% | 0 | ability to induce vacuole formation [5]: lost
CCCCCCCCc1ccc([C@H]2CCN(C(C)=O)[C@@H]2CO)cc1 [Compound 134] | 39.7 µM | 40 ± 4% | 0 | vacuolation (in words) [5]: failed to induce vacuolation
CCCCCCC=Cc1ccc(C2CCN(C(C)=O)C2CO)cc1 (stereo not drawn) [Compound 135] | 46.2 µM | 40 ± 2% | 2 ± 2 | vacuolation (in words) [5]: failed to induce vacuolation
